# Calls of active or inactive are those of the source.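 How the source made its calls: active means reversible inhibitor in any panel, blocking the enzyme before filtration but under 50% inhibition after two or more filtrations; inactive means irreversible inhibitor in every panel.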
# Key:
# [1] = target: Acyl-protein thioesterase 1 (Homo sapiens) (UniProt O75608); assay: reversibility of LYPLA1/LYPLA2 inhibition, late-stage follow-up, mechanism study, cell lysate, gel-based ABPP, fluorescence, gel filtration, HEK293T proteome (AID 651987); conditions: HEK293T soluble proteome
# [2] = target: Acyl-protein thioesterase 2 (Homo sapiens) (UniProt O95372); assay: as above; conditions: HEK293T soluble proteome
# [3] = LYPLA1, after 1 gel filtration, stronger effect = higher value
# [4] = LYPLA1, after 2 gel filtrations, stronger effect = higher value
# [5] = LYPLA1, stronger effect = higher value, concentration not given here
# [6] = LYPLA2, after 1 gel filtration, stronger effect = higher value
# [7] = LYPLA2, after 2 gel filtrations, stronger effect = higher value
# [8] = LYPLA2, stronger effect = higher value, concentration not given here
# Sequence of Acyl-protein thioesterase 2 (Homo sapiens) (O95372 whole entry, looked up): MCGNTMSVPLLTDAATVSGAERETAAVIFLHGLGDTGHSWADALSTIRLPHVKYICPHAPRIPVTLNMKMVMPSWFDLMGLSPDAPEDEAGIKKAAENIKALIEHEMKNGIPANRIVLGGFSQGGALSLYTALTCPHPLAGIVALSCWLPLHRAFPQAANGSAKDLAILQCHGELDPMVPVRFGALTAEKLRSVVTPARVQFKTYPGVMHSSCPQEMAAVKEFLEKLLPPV
# Sequence of Acyl-protein thioesterase 1 (Homo sapiens) (O75608 whole entry, looked up): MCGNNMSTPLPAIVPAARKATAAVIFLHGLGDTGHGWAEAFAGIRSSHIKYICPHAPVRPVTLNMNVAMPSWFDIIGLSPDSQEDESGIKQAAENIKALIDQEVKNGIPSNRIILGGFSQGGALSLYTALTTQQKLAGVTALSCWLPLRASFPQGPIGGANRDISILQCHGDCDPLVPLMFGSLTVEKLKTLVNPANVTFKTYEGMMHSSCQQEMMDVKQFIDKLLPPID
"inhibition [1, 3] [%]","inhibition [1, 4] [%]","inhibition [1, 5]","inhibition [2, 6] [%]","inhibition [2, 7] [%]","inhibition [2, 8]","inhibition ([1]; LYPLA1, after 3 gel filtrations, stronger effect = higher value) [%]","inhibition ([2]; LYPLA2, after 3 gel filtrations, stronger effect = higher value) [%]",SMILES
75,0,100%,0,0,0% (inactive),–,–,O=C(CN1CCN(C(=O)c2ccco2)CC1)Nc1cc(C(F)(F)F)ccc1Cl
100,–,100% (inactive),100,–,100% (inactive),100,100,O=C(N1CCCCC1)n1ccnn1
0,0,0% (inactive),100,0,100%,–,–,COc1ccc(N2CCN(C(=O)c3cc4c(s3)-c3ccccc3S(=O)(=O)C4)CC2)cc1
